The target of one data set is T1, glucagon receptor (Homo sapiens, UniProt P47871).
T1 construct: expressed in transfected cells
In words: Assay (I) Glucagon activity (cAMP biosensor, FLIPR). The class given is cell-based.

The nature of data set [1]: Assay (X) Chemical stability assessment by RP-UPLC. The class given is physicochemical. To be noted: pH 8.15, 14 days at 37° C. vs 5° C., 333 μM.

Experimental findings from US9486506B2 (Novo Nordisk A/S, priority 2011, dated 2016) are described below.

Numbered stars: 1 amine (or outer) side, 2 acyl side, 3 side chain; on linkers, the order of the positions; unused ones are H or OH. Side chains are listed from the residue outwards. Peptide text beside a SMILES is read from it. * marks the point of attachment. C18 diacid = O=C(O)CCCCCCCCCCCCCCCCC(=O)*; C16 diacid = O=C(O)CCCCCCCCCCCCCCC(=O)*; γGlu = O=C(O)[C@H](CCC(=O)[*:2])N[*:1]; AEEA = NCCOCCOCC(=O)O

T1 sequence (P47871 26-477): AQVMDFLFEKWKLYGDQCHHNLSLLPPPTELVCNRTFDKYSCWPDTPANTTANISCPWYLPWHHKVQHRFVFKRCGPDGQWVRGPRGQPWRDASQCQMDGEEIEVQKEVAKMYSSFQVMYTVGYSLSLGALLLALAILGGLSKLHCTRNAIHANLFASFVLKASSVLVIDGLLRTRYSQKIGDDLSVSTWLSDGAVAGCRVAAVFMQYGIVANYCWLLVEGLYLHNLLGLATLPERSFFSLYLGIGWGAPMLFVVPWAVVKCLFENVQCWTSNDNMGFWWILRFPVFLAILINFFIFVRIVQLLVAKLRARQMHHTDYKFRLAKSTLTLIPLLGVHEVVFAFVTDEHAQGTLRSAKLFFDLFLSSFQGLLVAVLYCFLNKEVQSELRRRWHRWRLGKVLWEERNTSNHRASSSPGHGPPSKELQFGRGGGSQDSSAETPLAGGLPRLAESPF

Regarding `CC(C)C[C@H](NC(=O)[C@H](Cc1c[nH]c2ccccc12)NC(=O)[C@H](CCCCNC(=O)CC[C@H](NC(=O)CC[C@H](NC(=O)COCCOCCNC(=O)COCCOCCNC(=O)CC[C@H](NC(=O)CCCCCCCCCCCCCCCCC(=O)O)C(=O)O)C(=O)O)C(=O)O)NC(=O)[C@@H](NC(=O)[C@H](Cc1ccccc1)NC(=O)[C@H](CC(=O)O)NC(=O)[C@H](CCC(N)=O)NC(=O)[C@H](C)NC(=O)[C@H](CCCNC(=N)N)NC(=O)[C@H](CCCNC(=N)N)NC(=O)[C@@H](NC(=O)[C@H](CC(=O)O)NC(=O)[C@H](CC(C)C)NC(=O)[C@H](Cc1ccc(O)cc1)NC(=O)[C@H](CCCNC(=N)N)NC(=O)[C@H](CO)NC(=O)[C@H](Cc1ccc(O)cc1)NC(=O)[C@H](CC(=O)O)NC(=O)[C@H](CO)NC(=O)[C@@H](NC(=O)[C@H](Cc1ccccc1)NC(=O)[C@@H](NC(=O)CNC(=O)[C@H](CCC(N)=O)NC(=O)[C@H](CO)NC(=O)[C@@H](N)Cc1c[nH]cn1)[C@@H](C)O)[C@@H](C)O)[C@@H](C)O)C(C)C)C(=O)N[C@@H](CC(C)C)C(=O)N[C@@H](CO)C(=O)N[C@H](C(=O)O)[C@@H](C)O` [Example 22, N^ε24-[(4S)-4-carboxy-4-[[(4S)-4-carboxy-4-[[2-[2-[2-[[2-[2-[2-[[(4S)-4-carboxy-4-(17-carboxyheptadecanoylamino)butanoyl]amino]ethoxy]ethoxy]acetyl]amino]ethoxy]ethoxy]acetyl]amino]butanoyl]amino]butanoyl]-[Arg^12,Thr^16,Lys^24,Leu^27,Ser^28]-Glucagon] (H-HSQGTFTSDYSRYLDTRRAQDFVK([γGlu-γGlu-AEEA-AEEA-γGlu-C18 diacid])WLLST-OH), the EC50 on glucagon receptor amounted to 0.297 nM. Besides, the “Chemical stability [Purity loss/14 days 37 C.]” value in data set [1] was found to be 8.8%.
For `CC(C)C[C@H](NC(=O)[C@H](CC(C)C)NC(=O)[C@H](Cc1c[nH]c2ccccc12)NC(=O)[C@H](CCCCNC(=O)CC[C@H](NC(=O)CC[C@H](NC(=O)COCCOCCNC(=O)COCCOCCNC(=O)CC[C@H](NC(=O)CCCCCCCCCCCCCCC(=O)O)C(=O)O)C(=O)O)C(=O)O)NC(=O)[C@@H](NC(=O)[C@H](Cc1ccccc1)NC(=O)[C@H](CC(=O)O)NC(=O)[C@H](CCC(N)=O)NC(=O)[C@H](C)NC(=O)[C@H](CCCNC(=N)N)NC(=O)[C@H](CCCNC(=N)N)NC(=O)[C@H](CC(C)C)NC(=O)[C@H](CC(=O)O)NC(=O)[C@H](CC(C)C)NC(=O)[C@H](Cc1ccc(O)cc1)NC(=O)[C@H](CCCNC(=N)N)NC(=O)[C@H](CO)NC(=O)[C@H](Cc1ccc(O)cc1)NC(=O)[C@H](CC(=O)O)NC(=O)[C@H](CO)NC(=O)[C@@H](NC(=O)[C@H](Cc1ccccc1)NC(=O)[C@@H](NC(=O)CNC(=O)[C@H](CCC(N)=O)NC(=O)[C@H](CO)NC(=O)[C@@H](N)Cc1c[nH]cn1)[C@@H](C)O)[C@@H](C)O)C(C)C)C(=O)NCC(=O)N[C@H](C(=O)O)[C@@H](C)O` [Example 90, N^ε24-[(4S)-4-carboxy-4-[[(4S)-4-carboxy-4-[[2-[2-[2-[[2-[2-[2-[[(4S)-4-carboxy-4-(15-carboxypentadecanoylamino)butanoyl]amino]ethoxy]ethoxy]acetyl]amino]ethoxy]ethoxy]acetyl]amino]butanoyl]amino]butanoyl]-[Arg12,Leu16,Lys24,Leu27,Gly28]-Glucagon] (H-HSQGTFTSDYSRYLDLRRAQDFVK([γGlu-γGlu-AEEA-AEEA-γGlu-C16 diacid])WLLGT-OH), on glucagon receptor, a half-maximal effect (EC50) was put at 0.09 nM. The “Chemical stability [Purity loss/14 days 37 C.]” value in data set [1] came to 5.4%.
As to `CC(C)C[C@H](NC(=O)[C@H](Cc1ccc(O)cc1)NC(=O)[C@H](CCCCN)NC(=O)[C@H](CO)NC(=O)[C@H](Cc1ccc(O)cc1)NC(=O)[C@H](CC(=O)O)NC(=O)[C@H](CO)NC(=O)[C@@H](NC(=O)[C@H](Cc1ccccc1)NC(=O)[C@@H](NC(=O)CNC(=O)[C@H](Cc1c[nH]cn1)NC(=O)[C@H](CO)NC(=O)[C@@H](N)Cc1c[nH]cn1)[C@@H](C)O)[C@@H](C)O)C(=O)N[C@@H](CC(=O)O)C(=O)N[C@@H](CCC(=O)O)C(=O)N[C@@H](CCCNC(=N)N)C(=O)N[C@@H](CCCNC(=N)N)C(=O)N[C@@H](C)C(=O)N[C@@H](CCCCN)C(=O)N[C@@H](CC(=O)O)C(=O)N[C@@H](Cc1ccccc1)C(=O)N[C@H](C(=O)N[C@@H](CCCCNC(=O)CC[C@H](NC(=O)CC[C@H](NC(=O)COCCOCCNC(=O)COCCOCCNC(=O)CC[C@H](NC(=O)CCCCCCCCCCCCCCCCC(=O)O)C(=O)O)C(=O)O)C(=O)O)C(=O)N[C@@H](Cc1c[nH]c2ccccc12)C(=O)N[C@@H](CC(C)C)C(=O)N[C@@H](CC(C)C)C(=O)N[C@@H](CO)C(=O)N[C@H](C(=O)O)[C@@H](C)O)C(C)C` [Example 4, N^ε24-[(4S)-4-carboxy-4-[[(4S)-4-carboxy-4-[[2-[2-[2-[[2-[2-[2-[[(4S)-4-carboxy-4-(17-carboxyheptadecanoylamino)butanoyl]amino]ethoxy]ethoxy]acetyl]amino]ethoxy]ethoxy]acetyl]amino]butanoyl]amino]butanoyl]-[His^3,Glu^16,Lys^20,Lys^24,Leu^27,Ser^28]-Glucagon] (H-HSHGTFTSDYSKYLDERRAKDFVK([γGlu-γGlu-AEEA-AEEA-γGlu-C18 diacid])WLLST-OH), the EC50 on glucagon receptor amounted to 0.237 nM. Also, the “Chemical stability [Purity loss/14 days 37 C.]” value in data set [1] turned out to be 7.5%.
`CC(C)C[C@H](NC(=O)[C@H](CC(=O)O)NC(=O)[C@H](CC(C)C)NC(=O)[C@H](Cc1ccc(O)cc1)NC(=O)[C@H](CCCNC(=N)N)NC(=O)[C@H](CO)NC(=O)[C@H](Cc1ccc(O)cc1)NC(=O)[C@H](CC(=O)O)NC(=O)[C@H](CO)NC(=O)[C@@H](NC(=O)[C@H](Cc1ccccc1)NC(=O)[C@@H](NC(=O)CNC(=O)[C@H](CCC(N)=O)NC(=O)[C@H](CO)NC(=O)[C@@H](N)Cc1c[nH]cn1)[C@@H](C)O)[C@@H](C)O)C(=O)N[C@@H](CCCNC(=N)N)C(=O)N[C@@H](CCCNC(=N)N)C(=O)N[C@@H](C)C(=O)N[C@@H](CCC(N)=O)C(=O)N[C@@H](CC(=O)O)C(=O)N[C@@H](Cc1ccccc1)C(=O)N[C@H](C(=O)N[C@@H](CCCCNC(=O)CC[C@H](NC(=O)CC[C@H](NC(=O)CC[C@H](NC(=O)CC[C@H](NC(=O)CCCCCCCCCCCCCCCCC(=O)O)C(=O)O)C(=O)O)C(=O)O)C(=O)O)C(=O)N[C@@H](Cc1c[nH]c2ccccc12)C(=O)N[C@@H](CC(C)C)C(=O)N[C@@H](CC(C)C)C(=O)N[C@@H](CO)C(=O)N[C@H](C(=O)O)[C@@H](C)O)C(C)C` [Example 86, N^ε24-[(4S)-4-carboxy-4-[[(4S)-4-carboxy-4-[[(4S)-4-carboxy-4-[[(4S)-4-carboxy-4-(17-carboxyheptadecanoylamino)butanoyl]amino]butanoyl]amino]butanoyl]amino]butanoyl]-[Arg12,Leu16,Lys24,Leu27,Ser28]-Glucagon] (H-HSQGTFTSDYSRYLDLRRAQDFVK([γGlu-γGlu-γGlu-γGlu-C18 diacid])WLLST-OH) displayed an EC50 on glucagon receptor of 0.343 nM. Moreover, the “Chemical stability [Purity loss/14 days 37 C.]” value in data set [1] came to 3.7%.
With `CC(C)C[C@H](NC(=O)[C@H](Cc1ccc(O)cc1)NC(=O)[C@H](CCCCN)NC(=O)[C@H](CO)NC(=O)[C@H](Cc1ccc(O)cc1)NC(=O)[C@H](CC(=O)O)NC(=O)[C@H](CO)NC(=O)[C@@H](NC(=O)[C@H](Cc1ccccc1)NC(=O)[C@@H](NC(=O)CNC(=O)[C@H](CCC(N)=O)NC(=O)[C@H](CO)NC(=O)[C@@H](N)Cc1c[nH]cn1)[C@@H](C)O)[C@@H](C)O)C(=O)N[C@@H](CCC(=O)O)C(=O)N[C@@H](CO)C(=O)N[C@@H](CCCNC(=N)N)C(=O)N[C@@H](CCCNC(=N)N)C(=O)N[C@@H](C)C(=O)N[C@@H](CCC(N)=O)C(=O)N[C@@H](CCC(=O)O)C(=O)N[C@@H](Cc1ccccc1)C(=O)N[C@H](C(=O)N[C@@H](CCCCNC(=O)CC[C@H](NC(=O)CC[C@H](NC(=O)CC[C@H](NC(=O)CC[C@H](NC(=O)CCCCCCCCCCCCCCCCC(=O)O)C(=O)O)C(=O)O)C(=O)O)C(=O)O)C(=O)N[C@@H](Cc1c[nH]c2ccccc12)C(=O)N[C@@H](CC(C)C)C(=O)N[C@@H](CC(C)C)C(=O)N[C@@H](CO)C(=O)N[C@H](C(=O)O)[C@@H](C)O)C(C)C` [Example 49, N^ε24-[(4S)-4-carboxy-4-[[(4S)-4-carboxy-4-[[(4S)-4-carboxy-4-[[(4S)-4-carboxy-4-(17-carboxyheptadecanoylamino)butanoyl]amino]butanoyl]amino]butanoyl]amino]butanoyl]-[Glu15,Glu21,Lys24,Leu27,Ser28]-Glucagon] (H-HSQGTFTSDYSKYLESRRAQEFVK([γGlu-γGlu-γGlu-γGlu-C18 diacid])WLLST-OH), the EC50 on glucagon receptor is 0.169 nM. In addition, in data set [1], the “Chemical stability [Purity loss/14 days 37 C.]” value was found to be 6.8%.
As to `CC(C)C[C@H](NC(=O)[C@H](Cc1c[nH]c2ccccc12)NC(=O)[C@H](CCCCNC(=O)CC[C@H](NC(=O)COCCOCCNC(=O)COCCOCCNC(=O)CC[C@H](NC(=O)CC[C@H](NC(=O)CCCCCCCCCCCCCCCCC(=O)O)C(=O)O)C(=O)O)C(=O)O)NC(=O)[C@@H](NC(=O)[C@H](Cc1ccccc1)NC(=O)[C@H](CCC(=O)O)NC(=O)[C@H](CCC(N)=O)NC(=O)[C@H](C)NC(=O)[C@H](CCCNC(=N)N)NC(=O)[C@H](CCCNC(=N)N)NC(=O)[C@@H](NC(=O)[C@H](CC(=O)O)NC(=O)[C@H](CC(C)C)NC(=O)[C@H](Cc1ccc(O)cc1)NC(=O)[C@H](CCCCN)NC(=O)[C@H](CO)NC(=O)[C@@H](NC(=O)[C@H](CC(=O)O)NC(=O)[C@H](CO)NC(=O)[C@@H](NC(=O)[C@H](Cc1ccccc1)NC(=O)[C@@H](NC(=O)CNC(=O)[C@H](CCC(N)=O)NC(=O)[C@H](CO)NC(=O)[C@@H](N)Cc1c[nH]cn1)[C@@H](C)O)[C@@H](C)O)C(C)C)[C@@H](C)O)C(C)C)C(=O)N[C@@H](CC(C)C)C(=O)N[C@@H](CO)C(=O)N[C@H](C(N)=O)[C@@H](C)O` [Example 61, N^ε24-[(4S)-4-carboxy-4-[[2-[2-[2-[[2-[2-[2-[[(4S)-4-carboxy-4-[[(4S)-4-carboxy-4-(17-carboxyheptadecanoylamino)butanoyl]amino]butanoyl]amino]ethoxy]ethoxy]acetyl]amino]ethoxy]ethoxy]acetyl]amino]butanoyl]-[Val10,Thr16,Glu21,Lys24,Leu27,Ser28]-Glucagon amide] (H-HSQGTFTSDVSKYLDTRRAQEFVK([γGlu-AEEA-AEEA-γGlu-γGlu-C18 diacid])WLLST-NH2), on glucagon receptor, a half-maximal response (EC50) required 0.156 nM. Moreover, the “Chemical stability [Purity loss/14 days 37 C.]” value in data set [1] is recorded as 6.2%.
